Laboratory results published in the supplement of paper PMC10307832.

Legend:
Test in all cases: relative viability (nuclei count vs DMSO), 5 days (fraction); higher = more cells survive
[1] = compound: CC1=CC=C(C=C1)C(=O)CN2C3=C(CCCC3)SC2=N [Pifithrin_alpha] + CC(=O)Nc1cccc(-n2c(=O)n(C3CC3)c(=O)c3c(Nc4ccc(I)cc4F)n(C)c(=O)c(C)c32)c1 [Trametinib] (partner 0.02 µM)
Outline: (§1)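 Cells from lung cancer lines were seeded into 1536-well plates and, one day later, dosed by pin tool. Treatments were either a single drug or a fixed dose of an anchor drug with five library-drug doses (not always all listed) in √10 steps. After 5 days, nuclei were stained in a one-step fixation (final 0.05% Triton X-100, 1% formaldehyde, 1 ug/ml Hoechst) and counted on 4× images, and relative viability is the treated-to-vehicle nuclei ratio, as the median of duplicate plates.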

Axitinib + Trametinib = compound: CNC(=O)c1ccccc1Sc1ccc2c(/C=C/c3ccccn3)n[nH]c2c1 [Axitinib] + CC(=O)Nc1cccc(-n2c(=O)n(C3CC3)c(=O)c3c(Nc4ccc(I)cc4F)n(C)c(=O)c(C)c32)c1 [Trametinib] (partner 0.02 µM)
Outline: as §1

Bemcentinib + AZD7762 = compound: Nc1nc(Nc2ccc3c(c2)CC[C@@H](N2CCCC2)CC3)nn1-c1cc2c(nn1)-c1ccccc1CCC2 [Bemcentinib] + NC(=O)Nc1cc(-c2cccc(F)c2)sc1C(=O)N[C@H]1CCCNC1 [AZD7762] (partner 0.2 µM)
Outline: as §1

Bemcentinib + Olaparib = compound: Nc1nc(Nc2ccc3c(c2)CC[C@@H](N2CCCC2)CC3)nn1-c1cc2c(nn1)-c1ccccc1CCC2 [Bemcentinib] + O=C(c1cc(Cc2n[nH]c(=O)c3ccccc23)ccc1F)N1CCN(C(=O)C2CC2)CC1 [Olaparib] (partner 8 µM)
Outline: as §1

Cell Line	relative viability ([1]; first compound 1 µM)	relative viability ([1]; first compound 3.162 µM)	relative viability ([1]; first compound 10 µM)	relative viability ([1]; first compound 31.62 µM)	relative viability ([1]; first compound 100 µM)	relative viability (Axitinib + Trametinib; first compound 0.005 µM)	relative viability (Axitinib + Trametinib; first compound 0.01581 µM)	relative viability (Axitinib + Trametinib; first compound 0.05 µM)	relative viability (Axitinib + Trametinib; first compound 0.1581 µM)	relative viability (Axitinib + Trametinib; first compound 0.5 µM)	relative viability (Bemcentinib + AZD7762; first compound 0.04 µM)	relative viability (Bemcentinib + AZD7762; first compound 0.1265 µM)	relative viability (Bemcentinib + AZD7762; first compound 0.4 µM)	relative viability (Bemcentinib + AZD7762; first compound 1.265 µM)	relative viability (Bemcentinib + AZD7762; first compound 4 µM)	relative viability (Bemcentinib + Olaparib; first compound 0.04 µM)	relative viability (Bemcentinib + Olaparib; first compound 0.1265 µM)	relative viability (Bemcentinib + Olaparib; first compound 0.4 µM)	relative viability (Bemcentinib + Olaparib; first compound 1.265 µM)	relative viability (Bemcentinib + Olaparib; first compound 4 µM)
201T	0.752	0.616	0.61	0.529	0.518	0.715	0.682	0.711	0.713	0.732	0.643	0.668	0.605	0.611	0.625	0.872	0.874	0.934	0.897	0.818
A549	–	–	–	–	–	–	–	–	–	–	–	–	–	–	–	0.264	0.279	0.323	0.167	0.342
A-427	0.682	0.727	0.688	0.6	0.552	0.89	0.711	0.758	0.761	0.879	0.75	0.856	0.746	0.63	0.637	0.737	0.783	0.853	0.72	0.71
ABC-1	–	–	–	–	–	–	–	–	–	–	–	0.937	0.799	0.816	1.09	0.627	0.843	0.855	0.774	0.792
BEN	1.13	0.993	1.12	1.14	1.29	1.33	1.04	0.885	0.992	1.01	0.554	0.637	0.638	0.674	0.634	1.05	1.25	1.02	1.19	1.18
CAL-12T	0.295	0.331	0.274	–	0.268	0.401	0.311	0.336	0.288	0.338	0.654	0.757	0.618	0.636	0.485	0.705	0.751	0.716	0.77	0.698
COR-L23	0.517	0.709	0.638	–	0.539	0.693	0.623	0.785	0.527	0.656	–	–	–	–	–	0.38	0.314	0.371	0.328	0.344
COR-L 105	0.259	0.424	0.432	0.421	0.454	0.478	0.414	0.446	0.452	0.466	–	–	–	–	–	0.635	0.762	0.752	0.737	0.64
Calu-6	–	–	–	–	–	–	–	–	–	–	–	–	–	–	–	0.525	0.573	0.614	0.535	0.57
ChaGo-K-1	0.889	0.936	0.889	0.589	0.862	0.872	0.874	0.902	0.858	0.887	0.838	0.976	0.919	0.907	0.958	0.403	0.371	0.467	0.438	0.423
EBC-1	–	–	–	–	–	–	–	–	–	–	–	–	–	–	–	0.773	0.73	0.693	0.691	0.754
EKVX	0.394	0.532	0.269	0.28	0.21	0.286	0.29	0.347	0.323	0.406	0.623	0.719	0.759	0.723	0.717	0.88	0.852	0.829	1.09	0.939
EMC-BAC-2	–	0.89	–	0.706	0.794	0.952	0.905	0.898	0.926	0.88	1.14	1.11	1.14	1.02	1.06	0.491	0.511	0.488	0.468	0.482
EPLC-272H	–	0.282	0.281	0.284	0.268	0.312	0.273	0.255	0.249	0.289	0.236	0.162	0.186	0.168	0.197	0.753	1.02	0.975	0.833	0.761
H3255	0.578	0.831	0.546	0.421	0.442	0.573	–	0.551	0.486	0.558	0.814	0.887	0.874	0.773	0.839	0.533	0.589	0.537	0.599	0.491
HARA	0.557	0.695	0.836	0.493	0.45	0.727	0.707	0.768	0.618	0.949	0.326	0.26	0.345	0.185	0.258	0.778	1.17	1.14	0.929	0.76
HCC-15	0.373	0.33	0.348	0.315	0.256	0.403	0.417	0.378	0.372	0.383	1.22	1.4	1.19	1.26	1.38	0.7	0.712	0.771	0.655	0.748
HCC-44	0.945	0.846	0.727	0.786	0.747	1.05	1.1	1.05	1.06	1.03	1.07	1.05	1.01	1.08	1.04	1.04	1.04	0.981	0.974	1.02
HCC-78	–	0.774	0.71	0.541	0.598	0.955	0.683	0.518	0.615	0.986	0.633	0.717	0.556	0.672	0.614	0.919	0.794	0.971	0.808	0.833
HCC-366	0.249	0.248	0.238	–	0.187	0.415	0.417	0.391	0.359	0.333	0.253	0.382	0.248	0.163	0.208	0.421	0.35	0.415	0.387	0.353

Cell Line	relative viability ([1]; first compound 1 µM)	relative viability ([1]; first compound 3.162 µM)	relative viability ([1]; first compound 10 µM)	relative viability ([1]; first compound 31.62 µM)	relative viability ([1]; first compound 100 µM)	relative viability (Axitinib + Trametinib; first compound 0.005 µM)	relative viability (Axitinib + Trametinib; first compound 0.01581 µM)	relative viability (Axitinib + Trametinib; first compound 0.05 µM)	relative viability (Axitinib + Trametinib; first compound 0.1581 µM)	relative viability (Axitinib + Trametinib; first compound 0.5 µM)	relative viability (Bemcentinib + AZD7762; first compound 0.04 µM)	relative viability (Bemcentinib + AZD7762; first compound 0.1265 µM)	relative viability (Bemcentinib + AZD7762; first compound 0.4 µM)	relative viability (Bemcentinib + AZD7762; first compound 1.265 µM)	relative viability (Bemcentinib + AZD7762; first compound 4 µM)	relative viability (Bemcentinib + Olaparib; first compound 0.04 µM)	relative viability (Bemcentinib + Olaparib; first compound 0.1265 µM)	relative viability (Bemcentinib + Olaparib; first compound 0.4 µM)	relative viability (Bemcentinib + Olaparib; first compound 1.265 µM)	relative viability (Bemcentinib + Olaparib; first compound 4 µM)
HCC-827	0.558	0.562	0.576	0.498	0.573	0.572	0.519	0.552	0.548	0.518	0.19	0.163	0.186	0.198	0.161	0.669	0.691	0.554	0.623	0.625
HOP-62	0.343	0.377	0.368	0.361	0.335	0.404	0.351	0.404	0.431	0.454	0.531	0.505	0.599	0.527	0.511	0.342	0.621	0.575	0.528	0.472
IA-LM	–	–	–	–	–	–	–	–	–	–	–	–	–	–	–	0.799	0.913	0.885	0.859	0.89
LC-2-ad	0.973	0.945	0.912	0.757	0.811	0.953	0.864	0.885	0.873	0.871	0.807	0.838	1.01	0.831	0.84	0.719	0.676	0.767	0.711	0.655
LCLC-97TM1	–	0.167	0.191	–	0.18	0.18	0.212	0.184	0.202	0.187	0.183	0.298	0.186	0.28	0.309	0.411	0.455	0.476	0.289	0.382
LCLC-103H	0.681	0.597	0.646	0.623	0.702	0.737	0.651	0.685	0.705	0.693	0.764	0.818	0.851	0.81	0.852	0.802	0.811	0.796	0.86	0.783
LK-2	0.811	0.856	0.684	0.601	0.687	0.773	0.631	0.515	0.726	0.547	0.281	0.42	0.289	0.508	0.48	0.694	0.756	0.837	0.839	0.677
LOU-NH91	0.746	0.72	0.731	0.612	0.568	0.778	0.732	0.807	0.766	0.818	0.423	0.77	0.791	0.806	0.799	0.886	0.848	0.942	0.927	0.937
NCI-H520	0.777	0.652	0.785	0.535	0.741	0.704	0.542	0.733	0.541	0.686	–	–	–	–	–	0.394	0.335	0.343	0.387	0.415
NCI-H661	0.561	0.603	0.555	0.462	0.503	0.594	0.5	0.578	0.556	0.583	–	–	–	–	–	0.692	0.782	0.789	0.738	0.763
NCI-H1299	–	–	–	–	–	–	–	–	–	–	–	–	–	–	–	1.01	1.02	0.961	1	0.93
NCI-H1650	0.563	0.523	0.451	0.375	0.39	0.613	0.469	0.682	0.648	0.749	–	–	–	–	–	0.692	0.822	0.818	0.77	0.739
NCI-H1703	–	–	–	–	–	–	–	–	–	–	0.109	0.121	0.145	0.16	0.134	0.34	0.447	0.465	0.389	0.357
NCI-H2009	0.26	0.265	0.253	0.218	0.234	0.279	0.252	0.304	0.245	0.254	–	–	–	–	–	0.651	0.778	0.734	0.698	0.697
NCI-H2023	0.512	0.386	0.324	0.213	0.214	0.634	0.483	0.489	0.439	0.57	–	–	–	–	–	0.461	0.487	0.463	0.511	0.501
NCI-H2228	0.611	0.482	0.499	0.384	0.436	0.683	0.515	0.561	0.478	0.509	–	–	–	–	–	0.379	0.616	0.593	0.707	0.749
SK-LU-1	0.561	0.494	0.43	0.42	0.48	0.515	0.631	0.478	0.412	0.459	–	–	–	–	–	0.456	0.569	0.452	0.47	0.488
SK-MES-1	0.593	0.518	0.462	0.36	0.403	0.553	0.562	0.569	0.485	0.581	–	–	–	–	–	0.833	0.771	0.734	0.823	0.682
SW 1573	–	0.619	0.567	0.341	0.31	0.525	0.558	0.665	0.521	0.611	–	–	–	–	–	0.504	0.437	0.558	0.465	0.438
UMC-11	0.73	0.715	0.719	0.657	0.87	0.709	0.668	0.572	0.691	0.616	–	–	–	–	–	0.366	0.678	0.322	0.352	0.384
